Source: ChEMBL document CHEMBL4382204 (Eur J Med Chem, 2018)
The source made the active and inactive calls. No cut-off for these calls is given here.

Experiments:
[1] = molecular target: Proto-oncogene tyrosine-protein kinase Src (Homo sapiens) (UniProt P12931); assay: Inhibition of wild type C-terminal FLAG-tagged human TEL fused SRC (unknown origin) transfected in mouse BAF3 cells assessed as growth inhibition after 72 hrs by CCK8 assay; format: cell-based
[2] = Oral bioavailability in Sprague-Dawley rat at 10 mg/kg by LC-MS/MS analysis; format: ADME, organism-based; settings: in vivo
[3] = molecular target: T1, Bcr/Abl fusion protein (Homo sapiens, UniProt P00519, T315I); assay: Inhibition of BCR/ABL T315I mutant (unknown origin) expressed in mouse BAF3 cells assessed as inhibition of STAT5 phosphorylation after 1 hr by immunoblotting analysis; format: cell-based
[4] = molecular target: T2, Bcr/Abl fusion protein (Homo sapiens) (UniProt P00519+P11274); settings: BaF3
Description: Inhibition of wild type BCR/ABL (unknown origin) transfected in mouse BAF3 cells assessed as growth inhibition after 72 hrs by CCK8 assay

[5] = tested on: BaF3; assay: Antitumor activity against mouse BAF3 cells expressing BCR/ABL T315I mutant allografted in nu/nu mouse assessed as tumor growth inhibition at 25 mg/kg, po administered via gavage for 14 days relative to control; format: functional; settings: 336 h, read-out: TGI
[6] = AUC (0 to infinity) in mouse at 10 mg/kg, po by LC-MS/MS analysis; format: ADME, organism-based; design: dose 10 mg/kg, route oral, time infinity; settings: in vivo
[7] = molecular target: T2, Bcr/Abl fusion protein (Homo sapiens); assay: (§1) Inhibition of BCR/ABL in human MEG01 cells assessed as inhibition of BCR/ABL autophosphorylation at Y245 site after 1 hr by immunoblotting analysis; format: cell-based
[8] = molecular target: Bcr/Abl fusion protein (Homo sapiens, UniProt P00519); assay: as §1; format: cell-based
[9] = Cmax in Sprague-Dawley rat at 1 mg/kg, iv by LC-MS/MS analysis; format: ADME, organism-based; design: dose 1 mg/kg, route intravenous; settings: in vivo
[10] = Tmax in mouse at 10 mg/kg, po by LC-MS/MS analysis; format: ADME, organism-based; settings: in vivo
[11] = molecular target: Vascular endothelial growth factor receptor 1 (Homo sapiens) (UniProt P17948); assay: Inhibition of wild type C-terminal FLAG-tagged human TEL fused FLT1 (unknown origin) transfected in mouse BAF3 cells assessed as growth inhibition after 72 hrs by CCK8 assay; format: cell-based
[12] = molecular target: Proto-oncogene tyrosine-protein kinase receptor Ret (Homo sapiens) (UniProt P07949); assay: Inhibition of wild type C-terminal FLAG-tagged human TEL fused RET (unknown origin) transfected in mouse BAF3 cells assessed as growth inhibition after 72 hrs by CCK8 assay; format: cell-based
[13] = tested on: Bcr/Abl fusion protein (Homo sapiens), P00519+P11274 [Q252H]; settings: BaF3
[14] = Oral bioavailability in mouse at 10 mg/kg by LC-MS/MS analysis; format: ADME, organism-based; settings: in vivo
[15] = tested on: MEG-01; assay: Cell cycle arrest in human MEG01 cells assessed as accumulation at G0/G1 phase up to 0.3 uM after 24 hrs by propidium iodide/RNase staining based flow cytometric analysis; format: functional
[16] = MRT (0 to t) in Sprague-Dawley rat at 10 mg/kg, po by LC-MS/MS analysis; format: ADME, organism-based; settings: in vivo
[17] = molecular target: T1, Bcr/Abl fusion protein; assay: Inhibition of BCR/ABL T315I mutant (unknown origin) expressed in mouse BAF3 cells assessed as inhibition of BCR/ABL T315I mutant autophosphorylation at Y245 site after 1 hr by immunoblotting analysis; format: cell-based
[18] = tested on: Bcr/Abl fusion protein (Homo sapiens), P00519+P11274 [H396P]; settings: BaF3
[19] = AUC (0 to infinity) in mouse at 1 mg/kg, iv by LC-MS/MS analysis; format: ADME, organism-based; design: dose 1 mg/kg, route intravenous, time infinity; settings: in vivo
[20] = Apparent volume of distribution during terminal phase in Sprague-Dawley rat at 1 mg/kg, iv by LC-MS/MS analysis; format: ADME, organism-based; settings: in vivo, read-out: Vz
[21] = molecular target: Ephrin type-A receptor 2 (Homo sapiens) (UniProt P29317); assay: Inhibition of wild type C-terminal FLAG-tagged human TEL fused EPHA2 (unknown origin) transfected in mouse BAF3 cells assessed as growth inhibition after 72 hrs by CCK8 assay; format: cell-based
[22] = tested on: BaF3; assay: Antitumor activity against mouse BAF3 cells expressing BCR/ABL T315I mutant allografted in nu/nu mouse assessed as tumor growth inhibition at 50 mg/kg, po administered via gavage for 14 days relative to control; format: functional; settings: 336 h, read-out: TGI
[23] = molecular target: T2, Bcr/Abl fusion protein (Homo sapiens); assay: Inhibition of BCR/ABL in human K562 cells assessed as inhibition of CrkL phosphorylation up to 0.3 uM after 1 hr by immunoblotting analysis; format: cell-based
[24] = tested on: KU812 cell line; assay: Antiproliferative activity in human KU812 cells after 72 hrs by CCK8 assay; format: functional; settings: KU812, 72 h
[25] = MRT (0 to t) in Sprague-Dawley rat at 1 mg/kg, iv by LC-MS/MS analysis; format: ADME, organism-based; settings: in vivo
[26] = molecular target: T2, Bcr/Abl fusion protein (Homo sapiens); assay: Inhibition of BCR/ABL in human MEG01 cells assessed as inhibition of CrkL phosphorylation up to 0.3 uM after 1 hr by immunoblotting analysis; format: cell-based
[27] = molecular target: Tyrosine-protein kinase ABL1 (Homo sapiens, UniProt P00519); assay: Inhibition of active wild type His-tagged ABL (229 to 500 residues) (unknown origin) expressed in baculovirus infected sf9 cells using ABLtide as substrate after 1 hr by ADP-Glo assay
[28] = tested on: MEG-01; assay: Induction of apoptosis in human MEG01 cells assessed as cleaved caspase-3 level up to 0.3 uM after 24 hrs by immunoblotting analysis; format: functional, cell-based
[29] = Apparent volume of distribution during terminal phase in mouse at 1 mg/kg, iv by LC-MS/MS analysis; format: ADME, organism-based; settings: in vivo, read-out: Vz
[30] = tested on: Bcr/Abl fusion protein (Homo sapiens), P00519+P11274 [T315I]; settings: BaF3
[31] = molecular target: Platelet-derived growth factor receptor alpha (Homo sapiens) (UniProt P16234); assay: Inhibition of wild type C-terminal FLAG-tagged human TEL fused PDGFRalpha (unknown origin) transfected in mouse BAF3 cells assessed as growth inhibition after 72 hrs by CCK8 assay; format: cell-based
[32] = tested on: Tyrosine-protein kinase ABL1 (Homo sapiens), P00519 [T315I]; settings: BaF3
[33] = molecular target: T2, Bcr/Abl fusion protein (Homo sapiens); assay: Inhibition of BCR/ABL in human KU812 cells assessed as inhibition of STAT5 phosphorylation up to 0.3 uM after 1 hr by immunoblotting analysis; format: cell-based
[34] = molecular target: Ephrin type-A receptor 1 (Homo sapiens) (UniProt P21709); assay: Inhibition of wild type C-terminal FLAG-tagged human TEL fused EPHA1 (unknown origin) transfected in mouse BAF3 cells assessed as growth inhibition after 72 hrs by CCK8 assay; format: cell-based
[35] = Toxicity in nu/nu mouse allografted with mouse BAF3 cells expressing BCR/ABL T315I mutant at 25 to 50 mg/kg, po administered daily via gavage for 14 days; format: organism-based; settings: in vivo, 336 h
[36] = Toxicity in nu/nu mouse allografted with mouse BAF3 cells expressing BCR/ABL T315I mutant assessed as effect on body weight at 25 to 50 mg/kg, po administered daily via gavage for 14 days; format: organism-based; settings: in vivo, 336 h

Ephrin type-A receptor 2 (Homo sapiens), sequence (P29317 whole entry, the tested form may be a part): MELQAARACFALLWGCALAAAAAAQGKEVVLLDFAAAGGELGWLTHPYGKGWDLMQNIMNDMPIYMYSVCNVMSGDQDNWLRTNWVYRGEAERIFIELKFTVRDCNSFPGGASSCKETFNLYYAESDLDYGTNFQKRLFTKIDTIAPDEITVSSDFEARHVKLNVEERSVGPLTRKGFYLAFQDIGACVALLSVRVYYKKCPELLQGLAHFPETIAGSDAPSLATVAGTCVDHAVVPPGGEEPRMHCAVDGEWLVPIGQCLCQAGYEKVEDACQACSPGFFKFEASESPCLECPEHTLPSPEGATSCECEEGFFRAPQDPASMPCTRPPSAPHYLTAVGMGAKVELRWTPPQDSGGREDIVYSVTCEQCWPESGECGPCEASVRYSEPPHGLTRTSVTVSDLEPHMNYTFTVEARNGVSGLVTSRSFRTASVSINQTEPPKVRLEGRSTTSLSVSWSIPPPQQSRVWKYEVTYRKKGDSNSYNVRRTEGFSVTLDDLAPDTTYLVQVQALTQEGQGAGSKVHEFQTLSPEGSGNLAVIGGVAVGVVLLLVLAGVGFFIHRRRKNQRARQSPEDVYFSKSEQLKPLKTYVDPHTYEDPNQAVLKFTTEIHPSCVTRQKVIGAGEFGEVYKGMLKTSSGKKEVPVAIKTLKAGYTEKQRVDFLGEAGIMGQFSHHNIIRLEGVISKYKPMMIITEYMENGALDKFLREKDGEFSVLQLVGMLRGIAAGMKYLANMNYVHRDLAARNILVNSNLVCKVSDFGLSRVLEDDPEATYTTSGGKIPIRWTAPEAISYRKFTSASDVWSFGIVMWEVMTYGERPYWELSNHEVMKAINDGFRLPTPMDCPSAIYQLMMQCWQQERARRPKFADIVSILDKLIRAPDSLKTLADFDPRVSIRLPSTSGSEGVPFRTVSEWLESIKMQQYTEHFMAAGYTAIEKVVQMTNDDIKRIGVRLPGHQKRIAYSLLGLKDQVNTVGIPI
Platelet-derived growth factor receptor alpha (Homo sapiens), sequence (P16234 whole entry, the tested form may be a part): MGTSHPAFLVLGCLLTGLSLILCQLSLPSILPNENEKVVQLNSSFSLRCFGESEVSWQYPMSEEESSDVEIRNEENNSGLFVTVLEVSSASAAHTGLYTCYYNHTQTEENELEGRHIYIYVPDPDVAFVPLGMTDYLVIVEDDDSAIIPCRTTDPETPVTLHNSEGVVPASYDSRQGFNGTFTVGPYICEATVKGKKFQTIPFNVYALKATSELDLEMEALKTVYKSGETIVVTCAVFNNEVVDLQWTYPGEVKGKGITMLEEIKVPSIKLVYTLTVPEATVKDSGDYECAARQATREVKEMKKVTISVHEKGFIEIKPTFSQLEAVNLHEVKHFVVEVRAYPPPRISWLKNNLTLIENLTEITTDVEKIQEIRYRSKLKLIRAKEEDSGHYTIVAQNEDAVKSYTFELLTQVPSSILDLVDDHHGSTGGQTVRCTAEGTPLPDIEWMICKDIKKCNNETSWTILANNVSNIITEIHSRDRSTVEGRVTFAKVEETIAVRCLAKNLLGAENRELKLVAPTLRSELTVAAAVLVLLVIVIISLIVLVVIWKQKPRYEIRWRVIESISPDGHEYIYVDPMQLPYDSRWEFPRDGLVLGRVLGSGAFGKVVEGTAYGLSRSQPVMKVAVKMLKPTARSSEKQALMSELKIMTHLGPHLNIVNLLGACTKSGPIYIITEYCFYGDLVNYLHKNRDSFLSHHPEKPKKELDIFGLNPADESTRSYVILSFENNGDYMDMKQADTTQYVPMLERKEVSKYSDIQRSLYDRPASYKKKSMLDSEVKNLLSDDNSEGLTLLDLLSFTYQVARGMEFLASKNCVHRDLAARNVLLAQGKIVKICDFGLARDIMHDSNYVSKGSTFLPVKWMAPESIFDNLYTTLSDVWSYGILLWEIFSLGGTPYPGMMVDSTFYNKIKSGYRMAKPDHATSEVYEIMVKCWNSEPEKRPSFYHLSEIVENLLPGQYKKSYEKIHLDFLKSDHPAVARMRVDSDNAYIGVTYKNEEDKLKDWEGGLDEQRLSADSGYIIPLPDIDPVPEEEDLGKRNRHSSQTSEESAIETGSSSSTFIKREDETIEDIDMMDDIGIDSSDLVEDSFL
Proto-oncogene tyrosine-protein kinase receptor Ret (Homo sapiens), sequence (P07949 whole entry, the tested form may be a part): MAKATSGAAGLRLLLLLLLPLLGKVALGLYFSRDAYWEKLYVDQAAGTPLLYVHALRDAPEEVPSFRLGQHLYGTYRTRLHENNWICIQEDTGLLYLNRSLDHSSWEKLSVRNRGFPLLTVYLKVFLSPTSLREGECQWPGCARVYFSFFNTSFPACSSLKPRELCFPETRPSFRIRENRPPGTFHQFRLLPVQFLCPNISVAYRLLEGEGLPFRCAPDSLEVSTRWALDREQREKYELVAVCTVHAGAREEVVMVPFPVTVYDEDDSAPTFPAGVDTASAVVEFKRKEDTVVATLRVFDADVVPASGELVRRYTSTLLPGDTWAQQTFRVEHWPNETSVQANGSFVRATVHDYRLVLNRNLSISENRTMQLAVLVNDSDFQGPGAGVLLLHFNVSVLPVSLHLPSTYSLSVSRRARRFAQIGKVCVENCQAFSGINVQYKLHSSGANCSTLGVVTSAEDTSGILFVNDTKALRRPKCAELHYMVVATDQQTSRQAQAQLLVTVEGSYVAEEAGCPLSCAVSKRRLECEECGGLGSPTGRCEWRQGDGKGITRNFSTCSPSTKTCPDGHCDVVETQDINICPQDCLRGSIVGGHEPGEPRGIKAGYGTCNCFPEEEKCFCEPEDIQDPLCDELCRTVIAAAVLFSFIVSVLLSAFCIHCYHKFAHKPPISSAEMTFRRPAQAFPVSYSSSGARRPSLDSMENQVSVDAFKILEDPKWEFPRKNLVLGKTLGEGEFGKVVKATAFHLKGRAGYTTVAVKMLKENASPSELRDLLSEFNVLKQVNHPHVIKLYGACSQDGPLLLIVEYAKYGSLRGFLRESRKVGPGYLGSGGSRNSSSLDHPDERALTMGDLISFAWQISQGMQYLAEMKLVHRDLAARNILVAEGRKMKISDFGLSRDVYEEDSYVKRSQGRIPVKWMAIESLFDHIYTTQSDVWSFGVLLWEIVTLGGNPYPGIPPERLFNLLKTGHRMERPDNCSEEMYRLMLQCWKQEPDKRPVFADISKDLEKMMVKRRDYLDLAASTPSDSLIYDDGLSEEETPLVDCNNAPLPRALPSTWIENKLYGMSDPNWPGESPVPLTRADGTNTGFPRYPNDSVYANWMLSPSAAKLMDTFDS
Proto-oncogene tyrosine-protein kinase Src (Homo sapiens), sequence (P12931 2-536 limits assumed): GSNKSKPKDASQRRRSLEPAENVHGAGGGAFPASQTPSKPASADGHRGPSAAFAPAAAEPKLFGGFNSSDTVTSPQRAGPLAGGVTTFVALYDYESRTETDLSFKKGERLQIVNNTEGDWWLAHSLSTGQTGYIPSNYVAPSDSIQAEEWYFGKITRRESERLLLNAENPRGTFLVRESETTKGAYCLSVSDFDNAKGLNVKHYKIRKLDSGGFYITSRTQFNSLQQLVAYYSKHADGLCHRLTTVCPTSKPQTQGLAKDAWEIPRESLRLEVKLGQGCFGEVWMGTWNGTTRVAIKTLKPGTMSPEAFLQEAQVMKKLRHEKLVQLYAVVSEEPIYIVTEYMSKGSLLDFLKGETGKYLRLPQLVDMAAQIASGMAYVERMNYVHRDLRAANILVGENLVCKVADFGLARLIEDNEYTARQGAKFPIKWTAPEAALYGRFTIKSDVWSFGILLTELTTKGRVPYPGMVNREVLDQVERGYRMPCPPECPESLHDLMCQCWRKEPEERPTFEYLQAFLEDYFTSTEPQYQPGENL
Ephrin type-A receptor 1 (Homo sapiens), sequence (P21709 whole entry, the tested form may be a part): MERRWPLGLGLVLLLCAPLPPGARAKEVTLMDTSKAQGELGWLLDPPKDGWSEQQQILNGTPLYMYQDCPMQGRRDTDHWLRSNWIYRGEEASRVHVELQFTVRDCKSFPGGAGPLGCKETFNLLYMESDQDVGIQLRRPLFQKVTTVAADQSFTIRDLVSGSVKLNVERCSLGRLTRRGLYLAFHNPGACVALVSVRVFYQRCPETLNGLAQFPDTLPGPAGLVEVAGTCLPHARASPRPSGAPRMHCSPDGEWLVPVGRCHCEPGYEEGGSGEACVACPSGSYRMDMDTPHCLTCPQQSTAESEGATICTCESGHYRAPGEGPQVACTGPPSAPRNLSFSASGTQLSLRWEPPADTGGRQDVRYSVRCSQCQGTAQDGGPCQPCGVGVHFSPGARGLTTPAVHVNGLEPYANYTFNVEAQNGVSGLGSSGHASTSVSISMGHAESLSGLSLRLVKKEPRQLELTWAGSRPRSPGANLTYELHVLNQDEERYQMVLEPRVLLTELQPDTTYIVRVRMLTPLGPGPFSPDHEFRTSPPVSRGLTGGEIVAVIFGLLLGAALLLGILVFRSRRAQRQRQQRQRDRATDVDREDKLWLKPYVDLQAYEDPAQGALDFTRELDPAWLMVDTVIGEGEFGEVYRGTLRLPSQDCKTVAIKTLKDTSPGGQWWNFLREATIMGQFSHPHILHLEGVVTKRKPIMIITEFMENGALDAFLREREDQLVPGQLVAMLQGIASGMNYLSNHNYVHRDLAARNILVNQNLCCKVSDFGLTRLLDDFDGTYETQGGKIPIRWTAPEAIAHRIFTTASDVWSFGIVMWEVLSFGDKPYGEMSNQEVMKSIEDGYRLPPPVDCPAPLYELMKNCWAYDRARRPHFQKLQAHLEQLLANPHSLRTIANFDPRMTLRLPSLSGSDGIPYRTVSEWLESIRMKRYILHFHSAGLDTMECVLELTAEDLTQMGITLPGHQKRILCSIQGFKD

## CN1CCN(Cc2ccc(NC(=O)CCSc3ccc4c(/C=C/c5ccccn5)n[nH]c4c3)cc2C(F)(F)F)CC1
[1]
  GI50: 1050 nM
[2]
  bioavailability: 10.9%
[3]
  EC50: < 10 nM
[4]
  GI50: 7 nM
[5]
  inhibition in vivo at 25 mg/kg: 29%
[6]
  AUC(0-inf): 230 ng·h/mL
[7]
  inhibition: Dose-dependent effect
[8]
  EC50: < 10 nM
[9]
  Cmax: 1270 ng/mL
[10]
  Tmax: 1 h
[11]
  GI50: 2 nM
[12]
  GI50: 200 nM
[13]
  GI50: 15 nM
[14]
  bioavailability: 14.4%
[15]
  Activity: Active
[16]
  MRT last: 4.4 h
[17]
  EC50: < 10 nM
[18]
  GI50: 35 nM
[19]
  AUC(0-inf): 160 ng·h/mL
[20]
  Vd: 17.7 L/kg
[21]
  GI50: 120 nM
[22]
  inhibition in vivo at 50 mg/kg: 52%
[23]
  inhibition: Active
[24]
  GI50: 3 nM
[25]
  MRT last: 1.2 h
[26]
  inhibition: Active
[27]
  IC50: 17 nM
[28]
  Activity: Active
[29]
  Vd: 45.3 L/kg
[30]
  GI50: 6 nM
[31]
  GI50: 2 nM
[32]
  GI50: 3 nM
[33]
  inhibition: Active
[34]
  GI50: 920 nM
[35]
  Activity: Non-Toxic
[36]
  Activity: Non-Toxic
